The text below walks through data of ChEMBL document CHEMBL3351747, “Structure-based design of β1i or β5i specific inhibitors of human immunoproteasomes” (J Med Chem, 2014).

A short description of test [1]: Inhibition of 20s proteasome subunit beta-1c in human RPMI8226 cells using BODIPY-NC001 by fluorescent densitometry. Format: cell-based. The conditions noted are these: rpmi-8226.
Test [2] deals with T1, Proteasome subunit beta type-8 (Homo sapiens, UniProt P28062).
T1 sequence (P28062 whole entry): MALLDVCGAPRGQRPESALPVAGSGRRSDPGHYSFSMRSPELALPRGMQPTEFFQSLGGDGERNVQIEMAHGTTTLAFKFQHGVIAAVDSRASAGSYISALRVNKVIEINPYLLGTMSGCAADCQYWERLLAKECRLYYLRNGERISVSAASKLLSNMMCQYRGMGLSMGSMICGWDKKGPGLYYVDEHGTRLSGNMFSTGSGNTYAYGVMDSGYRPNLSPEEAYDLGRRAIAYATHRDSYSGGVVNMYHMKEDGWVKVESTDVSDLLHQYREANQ
Nature of the test: Inhibition of proteasome subunit beta-5i in human RPMI8226 cells using BODIPY-NC005 by fluorescent densitometry. Format: cell-based, RPMI-8226.

In test [3] the target is T2, Proteasome subunit beta type-10 (Homo sapiens, UniProt P40306).
T2 sequence (P40306 whole entry): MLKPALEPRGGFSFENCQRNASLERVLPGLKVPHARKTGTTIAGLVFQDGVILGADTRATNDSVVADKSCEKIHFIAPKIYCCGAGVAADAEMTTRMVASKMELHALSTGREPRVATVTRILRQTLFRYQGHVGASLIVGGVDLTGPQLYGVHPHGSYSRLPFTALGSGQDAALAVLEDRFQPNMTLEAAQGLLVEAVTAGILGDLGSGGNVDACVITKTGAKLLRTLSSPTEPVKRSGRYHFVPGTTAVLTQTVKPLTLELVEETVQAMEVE
Briefly: Inhibition of proteasome subunit beta-2i in human Raji cells using BODIPY- epoxomicin by fluorescent densitometry. Format: cell-based.

In test [4] the target is T3, Proteasome subunit beta type-9 (Homo sapiens, UniProt P28065).
T3 sequence (P28065 whole entry): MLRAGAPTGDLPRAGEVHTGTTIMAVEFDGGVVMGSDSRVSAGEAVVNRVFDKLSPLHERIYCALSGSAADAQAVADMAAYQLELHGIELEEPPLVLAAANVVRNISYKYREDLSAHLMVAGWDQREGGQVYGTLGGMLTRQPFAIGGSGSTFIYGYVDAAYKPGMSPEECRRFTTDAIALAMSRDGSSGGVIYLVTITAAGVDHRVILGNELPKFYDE
Nature of the test: Inhibition of proteasome subunit beta-1i in human RPMI8226 cells using BODIPY-NC001 by fluorescent densitometry. Format: cell-based, RPMI-8226.

A short description of test [5]: Inhibition of 20s proteasome subunit beta-2c in human Raji cells using BODIPY- epoxomicin by fluorescent densitometry. Format: cell-based.
A short description of test [6]: Inhibition of 20s proteasome subunit beta-5c in human RPMI8226 cells using BODIPY-NC005 by fluorescent densitometry. It counts as cell-based. The conditions noted are these: rpmi-8226.
The nature of test [7]: Inhibition of 20s proteasome subunit beta-2c in human RPMI8226 cells using BODIPY-epoxomicin by fluorescent densitometry. It counts as cell-based. The conditions noted are these: rpmi-8226.
The nature of test [8]: Inhibition of 20s proteasome subunit beta-5c in human Raji cells using BODIPY-NC005 by fluorescent densitometry. Format: cell-based.
A short description of test [9]: Inhibition of 20s proteasome subunit beta-1c in human Raji cells using BODIPY- epoxomicin by fluorescent densitometry. Format: cell-based.
Test [10] concerns the target T1, Proteasome subunit beta type-8. Nature of the test: Inhibition of proteasome subunit beta-5i in human Raji cells using BODIPY-NC005 by fluorescent densitometry. It counts as cell-based.
In test [11] the target is T3, Proteasome subunit beta type-9. Nature of the test: Inhibition of proteasome subunit beta-1i in human Raji cells using BODIPY- epoxomicin by fluorescent densitometry. It counts as cell-based.
Test [12] addresses T2, Proteasome subunit beta type-10. Briefly: Inhibition of proteasome subunit beta-2i in human RPMI8226 cells using BODIPY-epoxomicin by fluorescent densitometry. It counts as cell-based, RPMI-8226.
The next test has as its system Raji. Briefly: Ratio of IC50 for 20s proteasome subunit beta-1c to IC50 for proteasome subunit beta-1i in human Raji cells. Format: cell-based.
Test [13] in a line: Inhibition of proteasome subunit beta-2c/i in human RPMI8226 cells by fluorescent densitometry. It counts as cell-based. The conditions noted are these: rpmi-8226.
The nature of test [14]: Inhibition of proteasome subunit beta-5c/i in human RPMI8226 cells by fluorescent densitometry. The conditions noted are these: rpmi-8226. Format: cell-based.
The subject of test [15] is RPMI-8226. Briefly: Ratio of IC50 for proteasome subunit beta-1i to IC50 for proteasome subunit beta-5c/I in human RPMI8226 cells. It counts as cell-based.
For test [16], the system named is RPMI-8226. Briefly: Ratio of IC50 for 20s proteasome subunit beta-1c to IC50 for proteasome subunit beta-1i in human RPMI8226 cells. It counts as cell-based.

For the compound `C[C@@H](NC(=O)CN1CCOCC1)C(=O)N[C@@H](Cc1c[nH]c2ccccc12)C(=O)N[C@@H](CC1CCCCC1)C(=O)[C@@]1(C)CO1`, the half-inhibitory concentration (IC50) (in general, the midpoint of a concentration-inhibition curve) is over 10 µM in [1]; 59 nM in [2]; over 10 µM in test [3]; 6.2 µM in test [4]; over 10 µM in test [5]; 2900 nM in [6]. The IC50 in test [7] was over 10 µM; in test [8] it was 0.827 µM; in [9], over 10 µM; in [10] it was 32 nM; in [11], over 10000 nM; in test [12] it was over 10 µM.

In the case of `CC1=C(C(=O)N[C@H](C)C(=O)N[C@@H](Cc2c[nH]c3ccccc23)C(=O)N[C@@H](CC2CCCCC2)C(=O)[C@@]2(C)CO2)Cc2ccccc21`, the IC50 in test [1] is over 100 µM; in [2] it was 230 nM; in test [3], over 10 µM; in [4], 16 µM; in test [5], over 10 µM; in test [6] it was over 100000 nM. Further, the half-maximal inhibitory concentration (IC50) in test [7] is over 100 µM; in test [8], 4.6 µM; in test [9], over 10 µM; in test [10], 8.3 nM; in [11] it was 7100 nM; in test [12], over 100 µM.

Consider `CC1=C(C(=O)N[C@H](C)C(=O)N[C@@H](Cc2c[nH]c3ccccc23)C(=O)N[C@H](/C=C/S(C)(=O)=O)Cc2ccccc2)Cc2ccccc21`, for which the IC50 was over 100 µM in test [1]; 390 nM in [2]; over 100 µM in test [3]; over 100 µM in test [4]; over 100 µM in [5]; over 100000 nM in test [6]. In addition, the IC50 in [7] is over 100 µM; in test [8] it was 25 µM; in test [9], over 100 µM; in test [10], 53 nM; in test [11], over 100000 nM; in test [12], over 100 µM.

As to `CCCC[C@H](NC(=O)[C@@H]1CCCN1C(=O)[C@H](C)NC(=O)CN=[N+]=[N-])C(=O)N[C@@H](CC(C)C)C(=O)[C@@]1(C)CO1`, the IC50 is 0.37 µM in test [1]; 0.14 µM in [4]; over 10 µM in test [13]; over 10 µM in test [14]; 0.088 µM in test [9]; 45 nM in test [11]. Further, the Ratio IC50 in the test with Raji was 2; in the test with RPMI-8226 [15] it was over 70; in the test with RPMI-8226 [16], 3.

On to `CCCC[C@H](NC(=O)[C@@H]1CC(F)(F)CN1C(=O)[C@H](C)NC(=O)CN=[N+]=[N-])C(=O)N[C@@H](CC1CCCCC1)C(=O)[C@@]1(C)CO1`, for which the 50% inhibitory concentration (IC50) in test [1] was 47 µM; in test [3] it was over 100 µM; in [4], 0.13 µM; in test [13], over 100 µM; in test [14], 65 µM; in test [9], 24 µM. This compound displayed an IC50 in test [11] of 95 nM. Moreover, the Ratio IC50 in the test on Raji worked out at 252; with RPMI-8226 [15] it was 500; in the test on RPMI-8226 [16] it was 360.

`CC1=C(C(=O)N[C@H](C)C(=O)N[C@@H](Cc2c[nH]c3ccccc23)C(=O)N[C@@H](Cc2ccccc2)C(=O)[C@@]2(C)CO2)Cc2ccccc21`: the IC50 is over 100 µM in test [1]; 25 nM in [2]; over 10 µM in [3]; 3.5 µM in [4]; over 10 µM in test [5]; 2900 nM in test [6]. The IC50 in test [7] was over 100 µM; in test [8], 0.227 µM; in test [9], over 10 µM; in [10] it was 2.5 nM; in test [11], 1840 nM; in test [12], over 100 µM.

With `COc1ccc(C[C@H](NC(=O)[C@@H](C)NC(=O)C2=C(C)c3ccccc3C2)C(=O)N[C@@H](CC2CCCCC2)C(=O)[C@@]2(C)CO2)cc1`, the IC50 was over 100 µM in test [1]; 370 nM in test [2]; over 10 µM in [3]; over 100 µM in test [4]; over 10 µM in [5]; over 100000 nM in test [6]. Further, the IC50 was over 100 µM in test [7]; 5.5 µM in test [8]; over 10 µM in test [9]; 11 nM in test [10]; over 10000 nM in test [11]; over 100 µM in [12].
